Experiments:
3T3 NIH cells = experiment: PI-3K activity associated with activated receptor in PDGF-stimulated 3T3 NIH cells; assay type: cell-based; conditions: PDGF 50 ng/ml, 5 min, 37° C.; reaction 60 min, PI4,5P2 (10 μg) + PS (20 μg); FIG. 3
Description: FIG. 3: Detection of PI-3K activity associated with activated receptor. 3T3NIH cells (5×10^7 cells) were treated without (lane 1) or with (lane 2) PDGF (50 ng/ml for 5 min at 37° C.) and PI-3K was co-immunoprecipitated using anti-phosphotyrosine specific antibodies. The PI-3K reactions were run for 60 min using PIP2 (10 μg)+PS (20 μg) as substrates.
In resting cells, PI-3K is located in the cytosol. However, upon cell stimulation, the enzyme is recruited to the plasma membrane where it is associated with particular receptors and is involved in further propagation of the signal. This example illustrates that the described method allows to measure PI-3K activity associated with activated receptor. 3T3 NIH cells (0.5×10^7 cells) were starved oveminght in serum-free medium. PDGF (50 ng/ml) was added to the starved cells and the induction was carried out for 5 min at 37° C. Following the PDGF induction, cells were washed once with PBS while on the plate, scraped into PBS, transferred to a centrifuge tube, pelleted by centrifugation. The cell pellet was lysed and activated receptor-PI-3K complex was iminunoprecipitated using anti-phosphotyrosine specific antibodies. The PI-3K reaction was run for 60 min using PI4,5P2 (10 μg) as substrate, immobilized on “SAM2”-brand membranes, together with 20 μg of carrier lipid (PS).

PI-5K = experiment: Reaction specificity of PI-5K toward lipid substrates; assay type: biochemical; conditions: purified PI-5K 125 ng/ml, 15 min, room temperature; FIG. 9
Description: FIG. 9: Reaction specificity toward lipid substrates. Reactions according to the subject invention were performed with purified PI4P-5K (250 ng/ml) for 45 min at room temperature using 1 μg of different lipid substrates: PI3,4P (lane 1); PI3,5P2 (lane 2) and PI4,5P2 (lane 3). In addition to lipid substrates, all samples contained 10 μg of PS loaded on the membrane.
Lipids, 10 μg of PI4,5P2+20 μg of PS, were dissolved in chloroform:methanol (2:1) and loaded onto “SAM2”-brand membranes for PI-3K activity measurements. Likewise, 10 μg of PI4P was loaded onto “SAM2”-brand membranes for PI4P-5K activity measurements. The membranes were air dried and a reaction mixture containing 50 mM HEPES/NaOH, pH7.5, 100 mM NaCl, 10 mM MgCl2, 20 ng partially-purified PI-3K or 10 ng of purified PI4P-5K, 50 μM ATP supplemented with 1 μCi of γ-^32P-ATP was added onto the membrane containing the immobilized lipids.
Following incubation at room temperature, the reactions were stopped with 7.5 M guanidine chloride and the membranes were washed with 2M NaCl, followed by 2 M NaCl/1% H3PO4. The washed membranes were dried and subjected to scintillation counting.
This Example illustrates the reaction specificity toward lipid substrates. Here, a reaction was performed with purified PI-5K (125 ng/ml) for 15 min at room temperature using different lipid substrates: PI3,4P (lane 1); PI3,5P (lane 2) and PI4,5P2 (Lane 3).

| Substance | PI-3K activity co-immunoprecipitated with anti-phosphotyrosine antibodies (3T3 NIH cells) | substrate for PI-5K (phosphorylation, CPM) (PI-5K) |
| --- | --- | --- |
| platelet-derived growth factor [PDGF] | increase in PI-3K activity |  |
| D-myo-phosphatidylinositol 3,4-bisphosphate [PI3,4P] |  | suitable substrate |
| D-myo-phosphatidylinositol 3,5-bisphosphate [PI3,5P] |  | not substrates |
| D-myo-phosphatidylinositol 4,5-bisphosphate [PI4,5P] |  | not substrates |

Source: patent US6893834B2, “Assay for kinases and phosphatases” (Promega Corporation, priority 2000, dated 2005)
